Results reported in patent publication US20250382322A1, “DIAGNOSTICS FOR DETECTING ECTO-5'-NUCLEOTIDASE (CD73)” (EBERHARD KARLS UNIVERSITÄT TÜBINGEN, priority 2022, published 2025).

Biological target: T1, recombinant soluble rat CD73 (Rattus norvegicus, UniProt P21588)
T1 construct: glutathione-S-transferase fusion protein of soluble rat CD73; glutathione-S-transferase (GST); made in house; host or cells: Sf9 insect cells
T1 sequence (P21588 29-551 limits assumed): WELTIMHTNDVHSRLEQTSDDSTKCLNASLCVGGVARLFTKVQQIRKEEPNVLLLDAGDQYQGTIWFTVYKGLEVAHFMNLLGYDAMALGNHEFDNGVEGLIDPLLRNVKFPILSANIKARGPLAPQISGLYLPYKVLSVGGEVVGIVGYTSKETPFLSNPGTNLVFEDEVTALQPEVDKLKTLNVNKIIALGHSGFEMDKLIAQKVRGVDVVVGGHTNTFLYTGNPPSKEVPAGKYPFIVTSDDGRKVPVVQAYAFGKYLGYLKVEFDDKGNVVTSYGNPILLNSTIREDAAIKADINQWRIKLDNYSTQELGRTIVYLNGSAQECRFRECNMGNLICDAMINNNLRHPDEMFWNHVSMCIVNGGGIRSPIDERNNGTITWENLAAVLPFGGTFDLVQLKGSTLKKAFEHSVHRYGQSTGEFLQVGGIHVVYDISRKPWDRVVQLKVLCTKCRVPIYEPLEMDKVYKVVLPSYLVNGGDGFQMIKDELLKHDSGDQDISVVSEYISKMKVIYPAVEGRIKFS
Assay: CD73 enzyme inhibition assay with [2,8-3H]AMP, soluble rat CD73
Format: biochemical
Conditions: [2,8-3H]AMP (5 μM) as substrate; read-out: Rat soluble CD73 Ki ± SEM
Protocol: Compound 2b, its precursor 1, and 20 were investigated for their CD73-inhibitory potency using tritium-labeled AMP as a substrate.^20 After incubation with CD73, non-hydrolyzed substrate and inorganic phosphate were precipitated using a solution of lanthanum chloride, and the precipitate was separated from the solution containing the reaction product [2,8-^3H]adenosine by filtration through GF/B glass fiber filters (WhatmanTM GE Healthcare, Chicago, IL, USA) using a cell harvester (M-48, Brandel, Gaitherburg, MD, USA). The filtrates (ca. 1.8 mL each) were transferred to scintillation vials, scintillation cocktail ULTIMA Gold XR (PerkinElmer, Waltham, MA, USA) was added (5 mL), and the radioactivity esd quantified by scintillation counting. CD73 preparations were (1) recombinant soluble human CD73,^13 (2) recombinant soluble rat CD73,^21 both expressed in Spodoptera frugiperda 9 (Sf) cells, (3) membrane preparations of MDA-MB-231 cells,^16 a human triple-negative breast cancer cell line with high expression of CD73,^18 and (4) membrane preparations of the 4T1.2 cell line, a mouse CD73-expressing breast cancer cell line.^22 The potency of the compounds was determined by measurements of full concentration-inhibition curves. K values were calcuated from the obtained IC50 values employing the Cheng-Prusoff equation.^23 […]

Row | Ki | Structure (SMILES)
1 | 6.09 ± 0.74 nM | CCCN(Cc1ccc(-c2cn(CCF)nn2)cc1)c1nc(Cl)nc2c1ncn2[C@@H]1O[C@H](COP(=O)(O)CP(=O)(O)O)C(O)C1O (some centres unmarked) [Compound 2]
2 | 18 ± 1.43 nM | O=C(NCCCCCCNC(=O)c1ccc2c(c1)C1(OC2=O)c2ccc(O)cc2Oc2cc(O)ccc21)c1ccc(CNc2nc(Cl)nc3c2ncn3[C@@H]2O[C@H](COP(=O)(O)CP(=O)(O)O)[C@@H](O)[C@H]2O)cc1 [Compound 20, (((((2R,3S,4R,5R)-5-(2-chloro-6-((4-((6-(3′,6′-dihydroxy-3-oxo-3H-spiro[isobenzofuran-1,9′-xanthene]-6-carboxamido)-hexyl)carbamoyl)benzyl)amino)-9H-purin-9-yl)-3,4-dihydroxytetrahydrofuran-2-yl)methoxy)(hydroxy)phosphoryl)methyl)phosphonic acid]
